Measured values reported in patent publication US8906917B2, “Pyrimidine cyclohexyl glucocorticoid receptor modulators” (Corcept Therapeutics, Inc., priority 2011, dated 2014).

Experiments:
[1] = target: T1, Human Recombinant Glucocorticoid Receptor (Homo sapiens, UniProt P04150); assay: Glucocorticoid receptor binding displacement assay with 3H-dexamethasone; settings: displacement of 2.5 nM 3H-dexamethasone, 2.5 hrs at 4° C.; Ki from IC50 by Cheng-Prusoff; read-out: GR Binding Ki
T1 construct: This GR was a full-length steroid hormone receptor; host or cells: recombinant baculovirus-infected insect cells
T1 sequence (P04150 1-777): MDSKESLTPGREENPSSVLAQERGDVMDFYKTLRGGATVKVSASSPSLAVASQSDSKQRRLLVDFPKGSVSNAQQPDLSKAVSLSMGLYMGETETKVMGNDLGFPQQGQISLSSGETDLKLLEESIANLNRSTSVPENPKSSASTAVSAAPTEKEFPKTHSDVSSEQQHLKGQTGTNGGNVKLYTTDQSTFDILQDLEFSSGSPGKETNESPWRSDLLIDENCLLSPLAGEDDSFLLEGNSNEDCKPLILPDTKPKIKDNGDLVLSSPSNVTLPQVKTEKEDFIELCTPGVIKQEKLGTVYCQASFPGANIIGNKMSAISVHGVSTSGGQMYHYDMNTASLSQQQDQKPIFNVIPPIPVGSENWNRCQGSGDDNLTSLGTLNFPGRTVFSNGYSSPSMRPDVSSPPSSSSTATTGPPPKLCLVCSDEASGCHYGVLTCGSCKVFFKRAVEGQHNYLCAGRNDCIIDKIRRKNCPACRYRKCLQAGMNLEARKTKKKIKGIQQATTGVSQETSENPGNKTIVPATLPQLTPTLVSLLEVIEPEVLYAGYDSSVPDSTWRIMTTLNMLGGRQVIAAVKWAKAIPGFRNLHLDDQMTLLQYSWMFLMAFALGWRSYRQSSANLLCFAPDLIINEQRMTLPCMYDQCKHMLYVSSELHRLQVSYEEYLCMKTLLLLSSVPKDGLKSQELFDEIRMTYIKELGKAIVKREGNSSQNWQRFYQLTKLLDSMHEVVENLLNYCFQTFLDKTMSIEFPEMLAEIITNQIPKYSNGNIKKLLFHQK
Method: Binding protocol: Compounds were tested in a binding displacement assay using human recombinant glucocorticoid receptor with ^3H-dexamethasone as the ligand. The source of the receptor was recombinant baculovirus-infected insect cells. This GR was a full-length steroid hormone receptor likely to be associated with heat-shock and other endogenous proteins.
For the IC50 determinations, test compounds were tested at 6 concentrations in duplicate. Test compounds were diluted from 10 mM stock in 100% DMSO. The tested solutions were prepared at 2× final assay concentration in 2% DMSO/assay buffer.
All reagents and the assay plate were kept on ice during the addition of reagents. The reagents were added to wells of a v-bottomed polypropylene plate in the following order: 25 μl of 10 nM 3H-dexamethasone solution, 50 μl of TB/NSB/compound solution and 25 μl of 2 nM GR solution. After the additions, the incubation mixture was mixed and incubated for 2.5 hrs at 4° C.
Alter 2.5 hrs incubation, unbound counts were removed with dextran coated charcoal (DCC) as follows: 15 μl of DCC solution (10% DCC in assay buffer) was added to all wells and mixed (total volume 115 μl). The plate was centrifuged at 4000 rpm for 10 minutes at 4° C. 75 μl of the supernatants was carefully pipetted into an optiplate. 150 μl of scintillation cocktail were added (Microscint-40, Perkin Elmer). The plate was vigorously shaken for approx. 10 minutes and counted on Topcount.
The IC50 values were converted to Ki (the inhibition constant) using the Cheng-Prusoff equation.
Reagents: Assay buffer: 10 mM potassium phosphate buffer pH 7.6 containing 5 mM DTT, 10 mM sodium molybdate, 100 μM EDTA and 0.1% BSA.

[2] = target: T2, glucocorticoid receptors (endogenous) in SW1353/MMTV-5 cells (Homo sapiens, UniProt P04150); assay: GR functional assay using SW1353/MMTV-5 cells (MMTV-GRE luciferase reporter); format: cell-based
T2 construct: contains endogenous glucocorticoid receptors; endogenous in cells; host or cells: SW1353/MMTV-5 (human chondrosarcoma, stably transfected with pMAMneo-Luc reporter)
T2 sequence (P04150 1-777): T1 sequence (P04150 1-777)
Method: SW1353/MMTV-5 is an adherent human chondrosarcoma cell line that contains endogenous glucocorticoid receptors. It was transacted with a plasmid (pMAMneo-Luc) encoding firefly luciferase located behind a glucocorticoid-responsive element (GRE) derived from a viral promoter (long terminal repeat of mouse mammary tumor virus). A stable cell line SW1353/MMTV-5 was selected with geneticin, which was required to maintain this plasmid.
SW1353/MMTV-5 cells were distributed in 96-well plates and incubated in medium (without geneticin) for 24 hrs.

| SMILES | Ki [1] [µM] | Ki [2] [µM] |
| --- | --- | --- |
| O=c1[nH]c(C2=CCC(c3ccccc3)CC2)c(Cc2ccccc2)c(=O)[nH]1 (stereo not shown) [Compound 2a, 5-Benzyl-6-(4-phenylcyclohex-1-enyl)-1H-pyrimidine-2,4-dione] | > 0.01 | > 0.1 |
| Cc1cccc(Cc2c(C3=CCC(c4ccccc4)CC3)[nH]c(=O)[nH]c2=O)c1 (stereo not shown) [Compound 2b] | 0.005 to 0.01 | 0.05 to 0.1 |
| O=c1[nH]c(C2=CCC(c3ccccc3)CC2)c(Cc2ccccc2Cl)c(=O)[nH]1 (stereo not shown) [Compound 2c] | 0.005 to 0.01 | > 0.1 |
| Cc1ccccc1Cc1c(C2=CCC(c3ccccc3)CC2)[nH]c(=O)[nH]c1=O (stereo not shown) [Compound 2d] | > 0.01 | > 0.1 |
| O=c1[nH]c(=O)c(Cc2ccccc2)c([C@H]2CC[C@H](c3ccccc3)CC2)[nH]1 [Compound 3a, (E)-5-Benzyl-6-(4-phenylcyclohexyl)-1H-pyrimidine-2,4-dione] | < 0.005 | < 0.05 |
| O=c1[nH]c(=O)c(Cc2ccc(F)c(Cl)c2)c([C@H]2CC[C@H](c3ccccc3)CC2)[nH]1 [Compound 3aa] | > 0.01 | < 0.05 |
| O=c1[nH]c(=O)c(Cc2cccc(C(F)(F)F)c2)c([C@H]2CC[C@H](c3ccccc3)CC2)[nH]1 [Compound 3b, (E)-6-(4-Phenylcyclohexyl)-5-(3-trifluoromethylbenzyl)-1H-pyrimidine-2,4-dione] | 0.005 to 0.01 | < 0.05 |
| O=c1[nH]c(=O)c(Cc2ccccc2)c([C@H]2CC[C@@H](c3ccccc3)CC2)[nH]1 [Compound 3bb] | > 0.01 | > 0.1 |
| O=c1[nH]c(=O)c(Cc2ccccc2Cl)c([C@H]2CC[C@H](c3ccccc3)CC2)[nH]1 [Compound 3c] | < 0.005 | < 0.05 |
| Nc1cccc(Cc2c(=O)[nH]c(=O)[nH]c2[C@H]2CC[C@H](c3ccccc3)CC2)n1 [Compound 3cc] | > 0.01 | > 0.1 |
| O=c1[nH]c(=O)c(Cc2cccc(Cl)c2Cl)c([C@H]2CC[C@H](c3ccccc3)CC2)[nH]1 [Compound 3d] | < 0.005 | < 0.05 |
| O=c1[nH]c(=O)c(Cc2c(Cl)cccc2Cl)c([C@H]2CC[C@H](c3ccccc3)CC2)[nH]1 [Compound 3e] | 0.005 to 0.01 | 0.05 to 0.1 |
| O=c1[nH]c(=O)c(Cc2ccc(Cl)cc2Cl)c([C@H]2CC[C@H](c3ccccc3)CC2)[nH]1 [Compound 3f] | 0.005 to 0.01 | < 0.05 |
| O=c1[nH]c(=O)c(Cc2cc(Cl)ccc2Cl)c([C@H]2CC[C@H](c3ccccc3)CC2)[nH]1 [Compound 3g] | < 0.005 | < 0.05 |
| Cc1cccc(Cc2c(=O)[nH]c(=O)[nH]c2[C@H]2CC[C@H](c3ccccc3)CC2)c1 [Compound 3h, (E)-5-(3-Methylbenzyl)-6-(4-phenylcyclohexyl)-1H-pyrimidine-2,4-dione] | < 0.005 | < 0.05 |
| Cc1cccc(Cc2c(=O)[nH]c(=O)[nH]c2[C@H]2CC[C@H](c3ccccc3)CC2)n1 [Compound 3j] | > 0.01 | 0.05 to 0.1 |
| O=c1[nH]c(=O)c(Cc2ncccn2)c([C@H]2CC[C@H](c3ccccc3)CC2)[nH]1 [Compound 3k] | > 0.01 | > 0.1 |
| O=c1[nH]c(=O)c(Cc2cccc(C(F)(F)F)n2)c([C@H]2CC[C@H](c3ccccc3)CC2)[nH]1 [Compound 3l] | 0.005 to 0.01 | < 0.05 |
| O=c1[nH]c(=O)c(Cc2ncccc2Cl)c([C@H]2CC[C@H](c3ccccc3)CC2)[nH]1 [Compound 3m] | > 0.01 | > 0.1 |

| SMILES | Ki [1] [µM] | Ki [2] [µM] |
| --- | --- | --- |
| Cc1cc(Cc2c(=O)[nH]c(=O)[nH]c2[C@H]2CC[C@H](c3ccccc3)CC2)ccn1 [Compound 3n] | > 0.01 | > 0.1 |
| O=c1[nH]c(=O)c(Cc2nccs2)c([C@H]2CC[C@H](c3ccccc3)CC2)[nH]1 [Compound 3o] | > 0.01 | > 0.1 |
| O=c1[nH]c(=O)c(Cc2ccccn2)c([C@H]2CC[C@H](c3ccccc3)CC2)[nH]1 [Compound 3p] | > 0.01 | > 0.1 |
| Cc1ccnc(Cc2c(=O)[nH]c(=O)[nH]c2[C@H]2CC[C@H](c3ccccc3)CC2)c1 [Compound 3q] | > 0.01 | < 0.05 |
| O=c1[nH]c(=O)c(Cc2cc(C(F)(F)F)ccn2)c([C@H]2CC[C@H](c3ccccc3)CC2)[nH]1 [Compound 3r] | > 0.01 | 0.05 to 0.1 |
| CCc1ccccc1Cc1c(=O)[nH]c(=O)[nH]c1[C@H]1CC[C@H](c2ccccc2)CC1 [Compound 3s] | 0.005 to 0.01 | 0.05 to 0.1 |
| Cc1csc(Cc2c(=O)[nH]c(=O)[nH]c2[C@H]2CC[C@H](c3ccccc3)CC2)n1 [Compound 3t] | > 0.01 | > 0.1 |
| COc1ccccc1Cc1c(=O)[nH]c(=O)[nH]c1[C@H]1CC[C@H](c2ccccc2)CC1 [Compound 3u] | < 0.005 | 0.05 to 0.1 |
| CN(C)c1cccc(Cc2c(=O)[nH]c(=O)[nH]c2[C@H]2CC[C@H](c3ccccc3)CC2)n1 [Compound 3v] | 0.005 to 0.01 | < 0.05 |
| O=c1[nH]c(=O)c(Cc2ccc(F)c(F)c2)c([C@H]2CC[C@H](c3ccccc3)CC2)[nH]1 [Compound 3w] | > 0.01 | 0.05 to 0.1 |
| O=c1[nH]c(=O)c(Cc2ccc(F)cc2Cl)c([C@H]2CC[C@H](c3ccccc3)CC2)[nH]1 [Compound 3x] | > 0.01 | < 0.05 |
| O=c1[nH]c(=O)c(Cc2ccc(F)cc2F)c([C@H]2CC[C@H](c3ccccc3)CC2)[nH]1 [Compound 3y] | 0.005 to 0.01 | 0.05 to 0.1 |
| O=c1[nH]c(=O)c(Cc2cccc(F)c2F)c([C@H]2CC[C@H](c3ccccc3)CC2)[nH]1 [Compound 3z] | < 0.005 | < 0.05 |
| Cc1cccc(Cc2c(=O)[nH]c(=S)[nH]c2[C@H]2CC[C@H](c3ccccc3)CC2)c1 [Compound 12g, (E)-6-(4-Phenylcyclohexyl)-2-thioxo-5-(3-methylbenzyl)-2,3-dihydro-1H-pyrimidin-4-one] | > 0.01 | > 0.1 |
| Cc1cccc(Cc2c(=O)n(C)c(=O)[nH]c2[C@H]2CC[C@H](c3ccccc3)CC2)c1 [Compound 13a, (E)-3-Methyl-5-(3-methylbenzyl)-6-(4-phenylcyclohexyl)-1H-pyrimidine-2,4-dione] | 0.005 to 0.01 | < 0.05 |
| Cc1cccc(Cc2c(=O)n(CCN(C)C)c(=O)[nH]c2[C@H]2CC[C@H](c3ccccc3)CC2)c1 [Compound 13b] | > 0.01 | > 0.1 |
| O=c1[nH]c([C@H]2CC[C@H](c3ccccc3)CC2)c(Cc2cccc(Cl)c2Cl)c(=O)n1CCCN1CCOCC1 [Compound 13c] | > 0.01 | > 0.1 |
| Cn1c(=O)[nH]c([C@H]2CC[C@H](c3ccccc3)CC2)c(Cc2cccc(C(F)(F)F)c2)c1=O [Compound 13d, (E)-3-Methyl-6-(4-phenyl-cyclohexyl)-5-(3-trifluoromethyl-benzyl)-1H-pyrimidine-2,4-dione] | 0.005 to 0.01 | > 0.1 |
| O=c1[nH]c([C@H]2CC[C@H](c3ccccc3)CC2)c(Cc2cccc(C(F)(F)F)c2)c(=O)n1CCO [Compound 13f, (E)-3-(2-Hydroxy-ethyl)-6-(4-phenyl-cyclohexyl)-5-(3-trifluoromethyl-benzyl)-1H-pyrimidine-2,4-dione] | > 0.01 | > 0.1 |
